These results are taken from patent publication US20020137162A1, “Antisense oligonucleotide inhibition of specific histone deacetylase isoforms” (priority 2000, published 2002).

d = 2'-deoxy (DNA); m = 2'-O-methyl

Data set [1] has as its system MDAmb231. The data set can be described thus: Cell growth inhibition, trypan blue cell count. The class given is cell-based, human. As to conditions: MDAmb231 cancer cells, 50 nM, 72 hours. As to the method:
(§1) In order to determine the effect of HDAC OSDNs on cell growth and cell death through apoptosis, A549 or T24 cells, MDAmb231 cells, and HMEC cells (ATCC, Manassas, Va.) were treated with HDAC OSDNs as previously described.
(§2) Cells were harvested and cell numbers counted by trypan blue exclusion using a hemocytometer. Percentage of inhibition was calculated as (100—AS cell numbers/control cell numbers) %.

Data set [2] has as its system T24. The data set can be described thus: Cell growth inhibition, trypan blue cell count. The class given is cell-based, human. To be noted: T24 cancer cells, 50 nM, 72 hours. As to the method:
as §1, §2

Data set [3] concerns A549. Briefly: Cell growth inhibition, trypan blue cell count. The format is cell-based, human. To be noted: A549 cancer cells, 50 nM, 72 hours. As for the experimental part: as §1, §2
Data set [4] concerns MDAmb231. The data set can be described thus: Apoptosis, Cell Death Detection ELISA. The format is cell-based, human. As to conditions: fold over non-specific background, TSA at 100 ng/ml. As to the method: as §1
(§3) For the apoptosis study, cells were analyzed using the Cell Death Detection ELISA ^PLUSkit (Roche Diagnostic GmBH, Mannheim, Germany) according to the manufacturer's directions. Typically, 10,000 cells were plated in 96-well tissue culture dishes for 2 hours before harvest and lysis. Each sample was analyzed in duplicate. ELISA reading was done using a MR700 plate reader (DYNEX Technology, Ashford, Middlesex, England) at 410 nm. The reference was set at 490 nm.

Data set [5] deals with T24. Briefly: Apoptosis, Cell Death Detection ELISA. The format is cell-based, human. To be noted: fold over non-specific background, TSA at 100 ng/ml. As for the experimental part: as §1, §3
Data set [6] has as its system HMEC. The data set can be described thus: Apoptosis, Cell Death Detection ELISA. The class given is cell-based, human. As to conditions: fold over non-specific background, TSA at 100 ng/ml. As to the method: as §1, §3
The subject of data set [7] is A549. The data set can be described thus: Apoptosis, Cell Death Detection ELISA. The class given is cell-based, human. As to conditions: fold over non-specific background, TSA at 100 ng/ml. As to the method:
as §1, §3

A further data set deals with human HDAC-4. Briefly: Antisense ODN screen, HDAC-4 RNA, T24 cells. The class given is cell-based. As to conditions: 100 nM, 24 hours, Northern blot. As to the method:
Seventeen phosphorothioate ODNs containing sequences complementary to the 5′ or 3′ UTR of the human HDAC-4 gene (GenBank Accession No. AB006626) were screened as above. […] HDAC-4 MM1 and MM2 oligonucleotides were created as controls; compared to the antisense oligonucleotides, they each contain a 6-base mismatch.
(§4) Briefly, human A549 and/or T24 human bladder carcinoma cells were seeded in 10 cm tissue culture dishes one day prior to oligonucleotide treatment. The cell lines were obtained from the American Type Culture Collection (ATCC) (Manassas, Va.) and were grown under the recommended culture conditions. Before the addition of the oligonucleotides, cells were washed with PBS (phosphate buffered saline). Next, lipofectin transfection reagent (GIBCO BRL Mississauga, Ontario, Calif.), at a concentration of 6.25 μg/ml, was added to serum free OPTIMEM medium (GIBCO BRL, Rockville, Md.), which was then added to the cells. The oligonucleotides to be screened were then added directly to the cells (i.e., one oligonucleotide per plate of cells). Mismatched oligonucleotides were used as controls. The same concentration of oligonucleotide (e.g., 50 nM) was used per plate of cells for each oligonucleotide tested.
(§5) Cells were harvested, and total RNAs were analyzed by Northern blot analysis. Briefly, total RNA was extracted using RNeasy miniprep columns (QIAGEN). […]

In another data set the test system is p21 protein. The data set can be described thus: Western blot of p21 protein in A549 cells. The format is cell-based, human. As for the experimental part: Experiments were also conducted to examine the affect of HDAC antisense oligonucleotides on HDAC protein expression. In A549 cells, treatment with HDAC-4 antisene oligonucleotides results in a dramatic increase in the level of p21 protein (FIG. 15).

Data set [8] relates to HMEC. The data set can be described thus: Cell growth inhibition, trypan blue cell count. The class given is cell-based, human. As to conditions: HMEC normal cells, 50 nM, 72 hours. As for the experimental part:
as §1, §2

The subject of the next data set is human HDAC-6. Briefly: Antisense ODN screen, HDAC-6 RNA, T24 cells. The format is cell-based. To be noted: 100 nM, 24 hours, Northern blot. As to the method: Thirteen phosphorothloate ODNs containing sequences complementary to the 5′ or 3′ untranslated regions of the human HDAC-6 gene (GenBank Accession No. AJ011972) were screened as above. […] HDAC-6MM oligo was created as a control; compared to the antisense oligo, it contains a 7-base mismatch.
as §4, §5

In another data set the test system is A549 cells. Briefly: Growth in soft agar, colony count. The format is cell-based, human. To be noted: colonies counted after three weeks. As to the method:
1.3 g granulated agar (DIDFCO) was added to 100 ml deionized water and boiled in a microwave to sterilize. The boiled agar was held at 55 C until further use. Iscove's Modified Dulbecco×s Medium (GIBCO/BRL), 100× Penicillin-Streptomycin-Glutamine (GIBCO/BRL) and fetal bovine serum (medicorp) were pre-warmed at 37 C. To 50 ml sterile tubes was added 9 ml Isove's medium, 2 ml fetal bovine serum and 0.2 ml 100× Pen-Strep-Gln. Then 9 ml 55 C 1.3% agar was added to each tube. The tube contents were mixed immediately, avoiding air bubbles, and 2.5 ml of the mixture was poured into each sterile 6 cm petri dish to form a polymerized bottom layer. Dishes with polymerized bottom layers were then put in a CO2 incubator at 37 C until further use. In 50 ml sterile tubes were prewarmed at 37 C for each 4 cell lines/samples, 20 ml Iscove's medium, 0.4 ml 100× Pen-Strep-Gln and 8 ml fetal bovine serum. Cells were trypsinized and counted by trypan blue staining and 20,000 cells were aliquotted into a sterile 15 ml tube. To the tube was then added DMEM with low glucose (GIBCO/BRL)+10% fetal bovine serum+Pen-Strep-Gln to a final volume of 1 ml. To the prewarmed 37 C mix in the 50 ml tube was quickly added 8 ml 55 C 1.3% agar, which was then mixed well. […] Plates were wrapped up in foil paper and incubated in a CO2 incubator at 37° C. for three weeks, at which time colonies in agar are counted.

The next data set concerns human cancer cells. Briefly: Cell growth and apoptosis, summary for cancer cells. The format is cell-based. To be noted: Tables 3 and 4. As for the experimental part:
as §1, §3, §2

The subject of a further data set is HDAC-6 protein. Briefly: Western blot of HDAC isotype protein expression in A549 cells, HDAC-6. As to conditions: 50 nM, 48 hours. The format is cell-based, human. As for the experimental part: (§6) OSDN treatment conditions were as previously described.
(§7) Cells were lysed in buffer containing 1% Triton X-100, 0.5% sodium deoxycholate, 5 mM EDTA, 25 mM Tris-HC1, pH 7.5, plus protease inhibitors. Total protein was quantified by the protein assay reagent from Bio-Rad (Hercules, Calif.). 100 ug of total protein was analyzed by SDS-PAGE. Next, total protein was transferred onto a PVDF membrane and probed with various HDAC-specific primary antibodies. Rabbit anti-HDAC-1 (H-51), anti-HDAC-2 (H-54) antibodies (Santa Cruz Biotechnologies, Santa Cruz, Calif.) were used at 1:500 dilution. Rabbit anti-HDAC-3 antibody (Sigma, St. Louis, Mo.) was used at a dilution of 1:1000. Anti-HDAC-4 antibody was prepared as previously described (Wang, S. H. et al., (1999) Mol. Cell. Biol. 19:7816-27), and was used at a dilution of 1:1000. Anti-HDAC-6 antibody was raised by immunizing rabbits with a GST fusion protein containing a fragment of HDAC-6 protein (amino acid #990 to #1216, GenBank Accession No. AAD29048). Rabbit antiserum was tested and found only to react specifically to the human HDAC-6 isoform. HDAC-6 antiserum was used at 1:500 dilution in Western blots to detect HDAC-6 in total cell lysates. Horse Radish Peroxidase conjugated secondary antibody was used at a dilution of 1:5000 to detect primary antibody binding. […]

The next data set relates to human HDAC-3. The data set can be described thus: Antisense ODN screen, HDAC-3 RNA, T24 cells. The class given is cell-based. As to conditions: 100 nM, 24 hours, Northern blot. As for the experimental part:
Twenty-one phosphorothioate ODNs containing sequences complementary to the 5′ or 3′ UTR of the human HDAC-3 gene (GenBank Accession No. AF039703) were screened as above. […] HDAC-3 MM oligonucleotide was created as a control; compared to the antisense oligonucleotide, it contains a 6-base mismatch.
as §4, §5

In another data set the test system is HDAC-3 protein. The data set can be described thus: Western blot of HDAC isotype protein expression in A549 cells, HDAC-3. The format is cell-based, human. As to conditions: 50 nM, 48 hours. As for the experimental part:
as §6, §7

On to “5-GCTGCCTGCCGTGCCCACCC-3′ (sugars from the 5' end m4 d12 m4, all phosphorothioate, methylation of C and T or U not given here) [HDAC-4 AS1]”, for which the “Growth Inhibition (AS vs. MM)” value is recorded as “++ (“++”: 50-75% inhibition)” in the data set on MDAmb231 [1], “++ (“++”: 50-75% inhibition)” with T24 [2] and “+++ (“+++”: >75% inhibition)” with A549 [3]. The “Apoptosis After 48 Hour Treatment” value with MDAmb231 [4] is “++ (“++”: 3-5X fold)”; in the data set on T24 [5] it was “+ (“+”: 2-3X fold)”; in the data set on HMEC [6], “− (“−”: <= 2x fold over non-specific background)”; in the data set with A549 [7], “+++ (“+++”: 5-8X fold)”. For the same substance, the “antisense activity to human HDAC-4” value in the data set with human HDAC-4 is “antisense activity”. Besides, the “level of p21 protein” value with p21 protein was “induces the expression”.
Regarding “5′-CAGGCTGGAATGAGCTACAG-3′ (chemistry not given here) [HDAC-6 AS]”, the “Growth Inhibition (AS vs. MM)” value with T24 [2], with HMEC [8] and with A549 [3] was “− (“−”: no inhibition)” each time. Also, the “antisense activity to human HDAC-6” value with human HDAC-6 was “antisense activity”. The “growth of A549 cells in soft agar” value in the data set with A549 cells is “do not”. Besides, the “Apoptosis After 48 Hour Treatment” value with MDAmb231 [4], with T24 [5], in the data set on HMEC [6] and in the data set with A549 [7] was “− (“−”: <= 2x fold over non-specific background)” in each case. Moreover, in the data set on human cancer cells, the “growth arrest and apoptosis of human cancer cells” value is on record as “no effect”. Moreover, the HDAC-6 protein expression result with HDAC-6 protein was “specifically inhibits”.
In the case of “5′-CGCTTTCCTTGTCATTGACA-3′ (chemistry not given here) [HDAC-3 AS]”, the “Growth Inhibition (AS vs. MM)” value in the data set with MDAmb231 [1], with T24 [2], in the data set on HMEC [8] and in the data set with A549 [3] was “− (“−”: no inhibition)” throughout. For the same substance, the “antisense activity to human HDAC-3” value in the data set on human HDAC-3 is reported as “antisense activity”. In the data set on HDAC-3 protein, the HDAC-3 protein expression result is “specifically inhibits”. Besides, the “Apoptosis After 48 Hour Treatment” value with MDAmb231 [4], in the data set on T24 [5], with HMEC [6] and in the data set with A549 [7] was “− (“−”: <= 2x fold over non-specific background)” each time. Also, the “growth arrest and apoptosis of human cancer cells” value with human cancer cells is listed as “no effect”.
